A word on the IC50: it is the point on the concentration scale where inhibition reaches its midpoint.

Like-named read-outs stand apart in the source and are kept apart here.

The record followed here is patent US12662465B2, “EGFR inhibitors” (Blueprint Medicines Corporation, priority 2021, dated 2026).

The target in assay [1] is intracellular phosphorylation of EGFR (Tyr1068) in PC-9 cells (Ex19Del) (Homo sapiens, UniProt P00533, DEL746-750). In words: PC-9 pEGFR AlphaLISA assay. In kind it is cell-based. As to conditions: 4 hours compound incubation, read-out: Ext pEGFR_PC-9 Ex19Del IC50. In general terms: In Alpha technology, singlet oxygen from a donor bead excites a nearby acceptor bead.
intracellular phosphorylation of EGFR (Tyr1068) in PC-9 cells (Ex19Del), sequence (P00533 with tags, fused parts or gaps DEL746-750): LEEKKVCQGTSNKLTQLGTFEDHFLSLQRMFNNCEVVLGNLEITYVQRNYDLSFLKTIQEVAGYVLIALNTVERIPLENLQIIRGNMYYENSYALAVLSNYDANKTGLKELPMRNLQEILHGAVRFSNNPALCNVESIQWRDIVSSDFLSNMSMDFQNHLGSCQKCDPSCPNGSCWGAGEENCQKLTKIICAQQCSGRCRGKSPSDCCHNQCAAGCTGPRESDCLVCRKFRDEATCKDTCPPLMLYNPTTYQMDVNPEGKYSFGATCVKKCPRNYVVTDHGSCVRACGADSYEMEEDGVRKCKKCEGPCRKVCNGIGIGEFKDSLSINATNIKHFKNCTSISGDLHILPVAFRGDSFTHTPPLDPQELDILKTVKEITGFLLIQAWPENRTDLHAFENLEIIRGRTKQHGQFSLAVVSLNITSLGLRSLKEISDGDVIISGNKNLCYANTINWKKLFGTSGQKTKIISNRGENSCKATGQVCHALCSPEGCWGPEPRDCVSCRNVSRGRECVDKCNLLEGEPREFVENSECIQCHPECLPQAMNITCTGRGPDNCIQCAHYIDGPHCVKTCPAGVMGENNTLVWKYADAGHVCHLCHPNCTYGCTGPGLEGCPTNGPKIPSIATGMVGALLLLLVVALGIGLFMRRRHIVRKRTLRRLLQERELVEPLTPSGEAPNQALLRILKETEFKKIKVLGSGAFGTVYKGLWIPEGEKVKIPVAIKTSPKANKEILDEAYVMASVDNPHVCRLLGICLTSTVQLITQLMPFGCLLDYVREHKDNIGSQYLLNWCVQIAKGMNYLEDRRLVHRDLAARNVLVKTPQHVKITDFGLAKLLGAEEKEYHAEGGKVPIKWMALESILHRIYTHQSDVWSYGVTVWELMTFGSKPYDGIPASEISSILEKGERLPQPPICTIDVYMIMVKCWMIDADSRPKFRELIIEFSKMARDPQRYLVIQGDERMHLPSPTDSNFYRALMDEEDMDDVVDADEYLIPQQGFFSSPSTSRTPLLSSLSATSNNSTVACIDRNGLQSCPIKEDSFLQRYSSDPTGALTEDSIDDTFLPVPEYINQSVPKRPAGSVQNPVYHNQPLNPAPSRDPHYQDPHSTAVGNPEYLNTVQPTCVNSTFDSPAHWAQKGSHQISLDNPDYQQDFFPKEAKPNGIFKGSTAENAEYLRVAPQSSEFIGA
Another assay concerns the target T1, EGFR (d746-750) (Homo sapiens, UniProt P00533, DEL746-750).
T1 construct: purchased SignalChem E10-122JG
In words: Biochemical EGFR inhibition assay (Caliper mobility shift), EGFR (d746-750). As to conditions: read-out: Enz EGFR_Exon19-del746-750 IC50.

The target of a further assay is T2, EGFR L858R (Homo sapiens, UniProt P00533, L858R).
T2 construct: purchased SignalChem E10-122BG
T2 sequence (P00533 25-1210 L858R): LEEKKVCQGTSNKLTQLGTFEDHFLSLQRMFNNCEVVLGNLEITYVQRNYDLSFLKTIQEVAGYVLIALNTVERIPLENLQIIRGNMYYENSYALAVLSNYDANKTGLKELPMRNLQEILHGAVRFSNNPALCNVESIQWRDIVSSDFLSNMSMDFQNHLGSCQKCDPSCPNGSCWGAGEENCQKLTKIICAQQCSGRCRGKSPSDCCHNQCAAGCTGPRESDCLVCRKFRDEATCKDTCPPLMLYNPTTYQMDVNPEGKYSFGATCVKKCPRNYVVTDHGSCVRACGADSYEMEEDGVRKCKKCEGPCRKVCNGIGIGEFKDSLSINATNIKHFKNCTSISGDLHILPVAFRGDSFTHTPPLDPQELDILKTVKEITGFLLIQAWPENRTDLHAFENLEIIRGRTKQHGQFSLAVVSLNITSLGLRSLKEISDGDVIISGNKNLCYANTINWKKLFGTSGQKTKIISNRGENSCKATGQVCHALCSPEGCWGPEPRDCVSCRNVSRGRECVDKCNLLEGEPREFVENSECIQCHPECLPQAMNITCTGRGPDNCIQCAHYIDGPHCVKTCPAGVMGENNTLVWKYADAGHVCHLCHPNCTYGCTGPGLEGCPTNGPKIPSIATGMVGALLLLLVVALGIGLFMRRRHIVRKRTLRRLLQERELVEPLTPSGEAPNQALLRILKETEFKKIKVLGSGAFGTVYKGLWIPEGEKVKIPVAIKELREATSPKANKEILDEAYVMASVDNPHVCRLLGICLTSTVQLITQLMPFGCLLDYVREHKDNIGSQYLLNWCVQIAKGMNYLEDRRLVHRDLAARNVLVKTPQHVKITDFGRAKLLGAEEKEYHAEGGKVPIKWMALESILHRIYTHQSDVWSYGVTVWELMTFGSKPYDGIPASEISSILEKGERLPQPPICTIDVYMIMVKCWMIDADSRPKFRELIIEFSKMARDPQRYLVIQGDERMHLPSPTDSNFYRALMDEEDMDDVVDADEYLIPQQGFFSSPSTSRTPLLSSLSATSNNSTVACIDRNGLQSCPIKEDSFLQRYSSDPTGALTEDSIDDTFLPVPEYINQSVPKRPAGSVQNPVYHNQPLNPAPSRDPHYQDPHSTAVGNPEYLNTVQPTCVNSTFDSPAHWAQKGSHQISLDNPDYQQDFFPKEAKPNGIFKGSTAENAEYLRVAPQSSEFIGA
Nature of the assay: Biochemical EGFR inhibition assay (Caliper mobility shift), EGFR L858R. As to conditions: read-out: Enz EGFR_L858R IC50.

Where [2] appears, read: 1.0 mM ATP or ATP Km, room temperature (25° C.).

T1 sequence (P00533 with tags, fused parts or gaps DEL746-750 limits assumed): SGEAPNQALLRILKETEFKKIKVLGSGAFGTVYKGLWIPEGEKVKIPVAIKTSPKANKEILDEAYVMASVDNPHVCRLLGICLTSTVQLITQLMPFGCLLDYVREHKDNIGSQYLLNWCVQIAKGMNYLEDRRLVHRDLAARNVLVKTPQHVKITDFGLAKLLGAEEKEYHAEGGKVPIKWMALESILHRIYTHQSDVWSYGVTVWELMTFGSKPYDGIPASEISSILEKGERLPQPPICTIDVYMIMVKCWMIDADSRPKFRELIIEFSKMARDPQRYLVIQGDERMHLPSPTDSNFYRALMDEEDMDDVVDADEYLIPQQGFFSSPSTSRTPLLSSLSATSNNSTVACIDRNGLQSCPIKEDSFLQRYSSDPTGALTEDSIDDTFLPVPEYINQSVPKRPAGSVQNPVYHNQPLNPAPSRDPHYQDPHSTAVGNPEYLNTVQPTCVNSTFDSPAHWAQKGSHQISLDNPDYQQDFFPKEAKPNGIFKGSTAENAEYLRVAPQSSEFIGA

`C[C@@H](CN(C)C)Oc1cc(N2CC3CC(C2)O3)cc2ncnc(Nc3ccc4ncccc4c3)c12` (single isomer, unassigned) [Example 68, 7-(6-oxa-3-azabicyclo[3.1.1]heptan-3-yl)-5-(((S)-1-(dimethylamino)propan-2-yl)oxy)-N-(quinolin-6-yl)quinazolin-4-amine or 7-(6-oxa-3-azabicyclo[3.1.1]heptan-3-yl)-5-(((R)-1-(dimethylamino)propan-2-yl)oxy)-N-(quinolin-6-yl)quinazolin-4-amine]: the IC50 is not above 10 nM in assay [1], less than 10 nM on EGFR (d746-750) (setting [2]) and 10.1 to 50 nM at EGFR L858R (setting [2]).
Take `C[C@H](Oc1cc(-c2cnn(C)c2)cc2ncnc(Nc3ccc4ncccc4c3F)c12)C1COC1` (single isomer, unassigned) [Example 2, (S)—N-(5-fluoroquinolin-6-yl)-7-(1-methyl-1H-pyrazol-4-yl)-5-(1-(oxetan-3-yl)ethoxy)quinazolin-4-amine or (R)—N-(5-fluoroquinolin-6-yl)-7-(1-methyl-1H-pyrazol-4-yl)-5-(1-(oxetan-3-yl)ethoxy)quinazolin-4-amine]: the IC50 is not above 10 nM in assay [1], less than 10 nM at EGFR (d746-750) (setting [2]) and less than 10 nM on EGFR L858R (setting [2]).
Turning to `C[C@H](Oc1cc(-c2cnn(C)c2)cc2ncnc(Nc3ccc4ncccc4c3F)c12)[C@@H]1CCCN1C` (single isomer, unassigned) [Example 146], the figures for the IC50 (in assay [1]; at EGFR (d746-750) (setting [2]); at EGFR L858R (setting [2])) were not above 10 nM, less than 10 nM and less than 10 nM, respectively.
As to `C[C@H](CN(C)C)Oc1cc(N2CC3(CNC3)C2)cc2ncnc(Nc3ccc4ncccc4c3F)c12` [Example 152, (R)-5-((1-(dimethylamino)propan-2-yl)oxy)-N-(5-fluoroquinolin-6-yl)-7-(2,6-diazaspiro[3.3]heptan-2-yl)quinazolin-4-amine], the IC50 in assay [1] is 10.1 to 50 nM; at EGFR (d746-750) it was less than 10 nM; on EGFR L858R, less than 10 nM.
Consider `CNC[C@@H](C)Oc1cc(-c2cnn(C)c2)cc2ncnc(Nc3ccc4ncccc4c3F)c12` [Example 100, (R)—N-(5-fluoroquinolin-6-yl)-7-(1-methyl-1H-pyrazol-4-yl)-5-((1-(methylamino)propan-2-yl)oxy)quinazolin-4-amine], for which the IC50 (in assay [1]; at EGFR (d746-750); on EGFR L858R) was 10.1 to 50 nM in each case.
In the case of `C[C@H](CN(C)C)Oc1cc(-c2cnn(C)c2)cc2ncnc(Nc3ccc4nnccc4c3F)c12` [Example 41, (R)—N-(5-((1-(dimethylamino)propan-2-yl)oxy)-7-(1-methyl-1H-pyrazol-4-yl)quinazolin-4-yl)-5-fluorocinnolin-6-amine], the IC50 in assay [1] was more than 50.1 nM; at EGFR (d746-750), 10.1 to 50 nM; on EGFR L858R, more than 50.1 nM.
For the compound `C[C@H](CN(C)C1CCC1)Oc1cc(-c2cnn(C)c2)cc2ncnc(Nc3ccc4ncccc4c3F)c12` [Example 115, (R)-5-((1-(cyclobutyl(methyl)amino)propan-2-yl)oxy)-N-(5-fluoroquinolin-6-yl)-7-(1-methyl-1H-pyrazol-4-yl)quinazolin-4-amine], the IC50 was not above 10 nM in assay [1], less than 10 nM at EGFR (d746-750) and less than 10 nM at EGFR L858R.
Take `COc1cn(C)nc1-c1cc(O[C@H](C)CN(C)C)c2c(Nc3ccc4ncccc4c3F)ncnc2c1` [Example 45, (R)-5-((1-(dimethylamino)propan-2-yl)oxy)-N-(5-fluoroquinolin-6-yl)-7-(4-methoxy-1-methyl-1H-pyrazol-3-yl)quinazolin-4-amine]: the IC50 was not above 10 nM in assay [1], less than 10 nM on EGFR (d746-750) and less than 10 nM on EGFR L858R.
`C[C@H](CN(C)C)Oc1nc(N2CC[C@H](C(C)(C)O)C2)cc2ncnc(Nc3ccc4ncccc4c3F)c12` [Example 75, 2—((S)-1-(5-(((R)-1-(dimethylamino)propan-2-yl)oxy)-4-((5-fluoroquinolin-6-yl)amino)pyrido[4,3-d]pyrimidin-7-yl)pyrrolidin-3-yl)propan-2-ol]: the IC50 in assay [1] was 10.1 to 50 nM; on EGFR (d746-750), less than 10 nM; on EGFR L858R, 10.1 to 50 nM.
Turning to `CO[C@@H]1CCN(c2cc(O[C@H](C)CN(C)C)c3c(Nc4ccc5ncccc5c4F)ncnc3c2)C1` (single isomer, unassigned) [Example 87a, 5-(((R)-1-(dimethylamino)propan-2-yl)oxy)-N-(5-fluoroquinolin-6-yl)-7-((R)-3-methoxypyrrolidin-1-yl)quinazolin-4-amine or 5-(((R)-1-(dimethylamino)propan-2-yl)oxy)-N-(5-fluoroquinolin-6-yl)-7-((S)-3-methoxypyrrolidin-1-yl)quinazolin-4-amine], the IC50 in assay [1] is not above 10 nM; on EGFR (d746-750) (setting [2]), less than 10 nM; on EGFR L858R (setting [2]), less than 10 nM.
Regarding `C[C@H](CN(C)C)Oc1cc(-c2cnn(C)c2)cc2c1c(Nc1ccc3ncccc3c1F)nc[n+]2[O-]` (single isomer, unassigned) [Example 127], the IC50 is 10.1 to 50 nM in assay [1], less than 10 nM at EGFR (d746-750) and less than 10 nM on EGFR L858R.
For the compound `C[C@H](CN(C)C)Oc1cc(-c2cnn(C)c2)cc2ncnc(Nc3cc(F)c4ncccc4c3F)c12` [Example 10, (R)—N-(5,8-difluoroquinolin-6-yl)-5-((1-(dimethylamino)propan-2-yl)oxy)-7-(1-methyl-1H-pyrazol-4-yl)quinazolin-4-amine], the IC50 in assay [1] was not above 10 nM; at EGFR (d746-750) it was less than 10 nM; at EGFR L858R it was less than 10 nM.
For `C[C@H](O)[C@H](C)Oc1cc(-c2cnn(C)c2)cc2ncnc(Nc3ccc4ncccc4c3F)c12` (single isomer, unassigned) [Example 30, (2S,3S)-3-((4-((5-fluoroquinolin-6-yl)amino)-7-(1-methyl-1H-pyrazol-4-yl)quinazolin-5-yl)oxy)butan-2-ol or (2R,3R)-3-((4-((5-fluoroquinolin-6-yl)amino)-7-(1-methyl-1H-pyrazol-4-yl)quinazolin-5-yl)oxy)butan-2-ol], the IC50 is not above 10 nM in assay [1], less than 10 nM on EGFR (d746-750) (setting [2]) and less than 10 nM at EGFR L858R (setting [2]).
As to `COC[C@@H](C)Oc1cc(-c2cnn(C)c2)cc2ncnc(Nc3ccc4ncccc4c3F)c12` [Example 31, (R)—N-(5-fluoroquinolin-6-yl)-5-((1-methoxypropan-2-yl)oxy)-7-(1-methyl-1H-pyrazol-4-yl)quinazolin-4-amine], the IC50 in assay [1] was not above 10 nM; on EGFR (d746-750) it was less than 10 nM; at EGFR L858R, less than 10 nM.
Take `C[C@H](CN(C)C)Oc1cc(C2CC2)cc2ncnc(Nc3ccc4ncccc4c3F)c12` [Example 149, (R)-7-cyclopropyl-5-((1-(dimethylamino)propan-2-yl)oxy)-N-(5-fluoroquinolin-6-yl)quinazolin-4-amine]: the values for the IC50 (in assay [1]; at EGFR (d746-750); on EGFR L858R) were more than 50.1 nM, 10.1 to 50 nM and more than 50.1 nM, respectively.
As to `C[C@H](Oc1cc(-c2cnn(C)c2)cc2ncnc(Nc3ccc4ncccc4c3F)c12)[C@@H]1CCCN1C` (single isomer, unassigned) [Example 147], the IC50 in assay [1] was not above 10 nM; at EGFR (d746-750) (setting [2]) it was less than 10 nM; at EGFR L858R (setting [2]) it was less than 10 nM.
Take `[2H]c1c(-c2cc(O[C@H](C)CN(C)C)c3c(Nc4ccc5ncccc5c4F)ncnc3c2)cnn1C` [Example 159, (R)-5-((1-(dimethylamino)propan-2-yl)oxy)-N-(5-fluoroquinolin-6-yl)-7-(1-methyl-1H-pyrazol-4-yl-5-d)quinazolin-4-amine]: the IC50 is not above 10 nM in assay [1], less than 10 nM on EGFR (d746-750) and 10.1 to 50 nM at EGFR L858R.
Regarding `C[C@H](CN(C)C)Oc1cc(-c2cnn(C)c2)cc2ncnc(Nc3cnc4ccccc4c3)c12` [Example 14, (R)-5-((1-(dimethylamino)propan-2-yl)oxy)-7-(1-methyl-1H-pyrazol-4-yl)-N-(quinolin-3-yl)quinazolin-4-amine], the results for the IC50 (in assay [1]; at EGFR (d746-750); on EGFR L858R) were not above 10 nM, less than 10 nM and less than 10 nM, respectively.
For the compound `CN1CC[C@H](Oc2cc(-c3cnn(C)c3)cc3ncnc(Nc4ccc5ncccc5c4F)c23)[C@@H](F)C1` (single isomer, unassigned) [Example 144, 5-(((3S,4S)-3-fluoro-1-methylpiperidin-4-yl)oxy)-N-(5-fluoroquinolin-6-yl)-7-(1-methyl-1H-pyrazol-4-yl)quinazolin-4-amine or 5-(((3R,4R)-3-fluoro-1-methylpiperidin-4-yl)oxy)-N-(5-fluoroquinolin-6-yl)-7-(1-methyl-1H-pyrazol-4-yl)quinazolin-4-amine], the IC50 in assay [1] was 10.1 to 50 nM; at EGFR (d746-750) (setting [2]), less than 10 nM; at EGFR L858R (setting [2]) it was less than 10 nM.
Consider `C[C@H](CN(C)C)Oc1cc(-c2cn[nH]c2)cc2ncnc(Nc3ccc4ncccc4c3F)c12` [Example 49, (R)-5-((1-(dimethylamino)propan-2-yl)oxy)-N-(5-fluoroquinolin-6-yl)-7-(1H-pyrazol-4-yl)quinazolin-4-amine], for which the IC50 was not above 10 nM in assay [1], less than 10 nM on EGFR (d746-750) and less than 10 nM at EGFR L858R.
Consider `C[C@H](CN(C)C)Oc1cc(N2CCO[C@@H](C(F)F)C2)cc2ncnc(Nc3ccc4ncccc4c3F)c12` (single isomer, unassigned) [Example 99a, 7-((S)-2-(difluoromethyl)morpholino)-5-(((R)-1-(dimethylamino)propan-2-yl)oxy)-N-(5-fluoroquinolin-6-yl) or 7-((R)-2-(difluoromethyl)morpholino)-5-(((R)-1-(dimethylamino)propan-2-yl)oxy)-N-(5-fluoroquinolin-6-yl)quinazolin-4-amine], for which the figures for the half-maximal inhibitory concentration (IC50) (in assay [1]; at EGFR (d746-750) (setting [2]); on EGFR L858R (setting [2])) were not above 10 nM, less than 10 nM and less than 10 nM, respectively.
